Consider six compounds from article PMC7307930, “Stereoselective Activity of 1-Propargyl-4-styrylpiperidine-like Analogues That Can Discriminate between Monoamine Oxidase Isoforms A and B” (Journal of Medicinal Chemistry, 2020).

A short description of data set [1]: Thermodynamic solubility in PBS. It is filed as physicochemical. To be noted: PBS (pH 7.4), 37 °C, 24 h, hydrochloride salts.
The target of data set [2] is T1, 5-HT1A receptor (Rattus norvegicus, UniProt P19327).
T1 construct: from tissue; host or cells: rat (male Wistar) brain cortex membranes
T1 sequence (P19327 1-422): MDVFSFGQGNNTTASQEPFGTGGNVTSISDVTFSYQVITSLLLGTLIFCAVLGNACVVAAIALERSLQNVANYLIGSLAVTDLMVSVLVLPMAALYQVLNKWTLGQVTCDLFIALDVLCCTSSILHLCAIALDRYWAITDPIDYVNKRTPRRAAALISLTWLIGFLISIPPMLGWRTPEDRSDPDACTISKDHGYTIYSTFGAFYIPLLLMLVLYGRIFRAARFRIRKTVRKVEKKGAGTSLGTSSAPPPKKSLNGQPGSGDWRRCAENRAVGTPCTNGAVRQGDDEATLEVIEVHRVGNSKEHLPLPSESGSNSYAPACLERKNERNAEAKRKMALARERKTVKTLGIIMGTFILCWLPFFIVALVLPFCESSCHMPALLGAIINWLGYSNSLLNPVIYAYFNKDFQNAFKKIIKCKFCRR
In words: [3H]-8-OH-DPAT radioligand binding assay, rat cortex membranes. The conditions noted are these: for Ki: [3H]-8-OH-DPAT binding, means ±SEM; for inhibition at 300 µM: read-out: Inhibition at 300 µM.

Data set [3] relates to SH-SY5Y cells. In words: MTS cytotoxicity assay. To be noted: 24 h, 5 μM and 10 μM.
The test system of data set [4] is Swiss mice. In words: Tail suspension test. The class given is in vivo, mouse. The conditions noted are these: ip 30 min before; 6, 67 at 3 and 10 mg/kg, 69 at 1, 3, 10, 30 mg/kg, imipramine 30 mg/kg. Here is the method: The antidepressant-like activity was screened with the widely used tail suspension test. At 30 min before the behavioral assays, the mice were treated with 6, 67, and 69 at 3 mg/kg and 10 mg/kg ip, with 69 also at 1 mg/kg and 30 mg/kg ip, or were injected with 0.9% saline as control. Imipramine (30 mg/kg ip) was used as the reference drug.
(A) Effects of acute ip treatment with 6 (3, 10 mg/kg, n = 13, 9), 67 (3, 10 mg/kg, n = 6, 10), and 69 (1, 3, 10, 30 mg/kg, n = 8, 7, 8, 6) and imipramine (30 mg/kg, n = 8) in the tail suspension test. […] (B) Effects of acute ip treatment with 6 (3, 10 mg/kg, n = 8, 8), 67 (1, 3, 6 mg/kg; n = 5, 5, 5), and 69 (1, 3, 6 mg/kg, n = 10, 5, 5) on locomotor activity of the mice. […] (C) Effects of 10-day chronic ip treatment with 69 (0.3 mg/kg, daily; n = 10) in the tail suspension test. Data are mean values ± SEM of the immobility time, compared to control mice (n = 8): ∗∗, p < 0.01 (unpaired t-test). […]
quality control sample every seven test samples. The absolute matrix effect was checked by comparing the analyte responses in the standard solutions to the samples spiked in the tissue incubation medium from the control experiment without the analyte, and a deviation of less than ±20% was deemed acceptable.
4.2.10In vitro radioligand binding assay
Rats were humanely killed by decapitation and their brains were removed, washed and rapidly dissected on ice. Homogenisation was performed using a homogeniser (PRO Scientific Inc) at 30,000 rpm for 1 min. For 5-HT1A binding assays, the cortex tissues were homogenised in 30 volumes/weight ice-cold 50 mM Tris–HCl buffer (pH 7.4), and the homogenate was centrifuged at 40,000× g for 15 min at 0 °C to 4 °C. The resulting pellets were resuspended in 30 volumes/weight of the same buffer, and incubated at 37 °C for 20 min. The centrifugation step was repeated twice under the same conditions as described above, and the final pellets were resuspended in 30 volumes/weight 50 mM Tris–HCl buffer (pH 7.4), and stored at –80 […]
For the [3H]-8-OH-DPAT binding assay (the 5-HT1A receptor binding assay), the membranes were thawed and resuspended in 50 mM Tris–HCl (pH 7.4) with 1 mM MnCl2, to a final protein concentration of 0.5 mg/mL. The incubation was carried out at 25 °C for 1 h in a final volume of 1 mL membrane suspension in the presence of the sample assayed and with 0.2 nM [3H]-8-OH-DPAT (170.2 Ci/mmol). Serotonin was used as the positive control. Non-specific binding was determined in parallel incubations in the presence of serotonin (10 μM).
4.2.11 Tail suspension test
The tail suspension test was carried out according to the methodology proposed by Steru and co-workers.22 The mice were individually suspended by the tail from a metal hook (distance

In data set [5] the test system is Swiss mice. In words: Elevated plus maze test. The class given is in vivo, mouse. To be noted: for Open arm entries (%) / Time in centre (%) / Time in open arms (%) / Total arm entries: acute ip.
Data set [6] deals with Swiss mice. Nature of the data set: Haloperidol-induced catalepsy test. It is filed as in vivo, mouse. To be noted: 5 mg/kg, reference drug.
Data set [7] has as its target T2, hMAO-A (Homo sapiens, UniProt P21397).
T2 construct: purchased Sigma Aldrich; host or cells: baculovirus-infected insect cells (BTI-TN-5B1-4)
T2 sequence (P21397 1-527): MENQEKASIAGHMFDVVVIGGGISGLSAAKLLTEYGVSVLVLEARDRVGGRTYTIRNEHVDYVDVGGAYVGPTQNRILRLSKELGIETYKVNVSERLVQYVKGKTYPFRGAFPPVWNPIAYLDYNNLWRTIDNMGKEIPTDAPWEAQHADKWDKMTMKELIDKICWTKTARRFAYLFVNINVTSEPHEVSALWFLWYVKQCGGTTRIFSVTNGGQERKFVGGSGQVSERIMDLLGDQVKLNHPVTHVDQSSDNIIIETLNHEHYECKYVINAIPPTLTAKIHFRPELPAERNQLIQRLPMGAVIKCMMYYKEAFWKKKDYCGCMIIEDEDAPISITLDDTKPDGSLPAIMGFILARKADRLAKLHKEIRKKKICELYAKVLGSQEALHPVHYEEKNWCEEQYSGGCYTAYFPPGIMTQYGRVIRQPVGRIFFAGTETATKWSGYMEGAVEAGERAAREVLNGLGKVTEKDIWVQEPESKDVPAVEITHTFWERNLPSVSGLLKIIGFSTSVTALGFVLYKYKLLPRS
Nature of the data set: hMAO-A inhibition, HRP–Amplex Red coupled fluorimetric assay. It is filed as biochemical. The conditions noted are these: supplement csv; RA at 100 micromolar.

Data set [8] is described as follows: Chemical stability and photoisomerization by proton NMR in D2O. The class given is physicochemical. To be noted: hydrochloride salts, more than 1 year at room temperature protected from sunlight, 1H NMR in D2O. Here is the method:
Possible chemical instability and photoisomerization of E/Z isomers were also addressed as these are known liabilities of stilbene derivatives.[23] Proton NMRs of 69 (cis derivative), 84 (trans derivative), and 100 (ethyl analogue) in the form of hydrochloride salts were recorded in D2O (Figures S1–S3). […] The samples dissolved in the NMR tubes were then left on the benchtop exposed to natural daylight for 7 days, which could induce photoisomerization. […] Altogether, these studies imply reasonable stability of the compounds.
Figure S2. […] Compound 84 (trans isomer, […]
hydrochloride salt) was dissolved in D2O and the spectra were recorded at time 0 h, 1 h, 24 h and 7 days. Sample was exposed to day light in between the measurement, which could induce photoisomerization and potentially also chemical degradation.
The sample was previously stored at […]

In data set [9] the test system is Swiss mice. In words: Locomotor activity test. The conditions noted are these: acute 10 mg/kg ip. It is filed as in vivo, mouse.
The test system of data set [10] is MAO-A/B. Nature of the data set: In vitro MAO inhibition in mouse brain homogenate, p-tyramine substrate. The conditions noted are these: substrate of MAO A/B, control mouse brain homogenates. The class given is biochemical.

Entries after “also recorded” stand apart in the source; their conditions may differ.

For `C#CCN1CCC(/C=C\c2ccccc2)CC1` [Compound 67, (Z)-1-(Prop-2-yn-1-yl)-4-styrylpiperidine], the thermodynamic solubility in [1] is at least 10.5 g/250 mL. In [2], the Ki was found to be 0.7 ± 0.1 µM and the inhibition at 300 µM stood at 96%. Further, in [3], the cytotoxic effects result is “no significant cytotoxic effects”. The “immobility time, acute treatment” value in data set [4] is “did not decrease the immobility time”. Also, in [5] (3 mg/kg), the “Open arm entries (%)” value turned out to be 15.0 ±2.3%, the “Time in centre (%)” value is listed as 39.8 ±1.7%, the “Time in open arms (%)” value is 11.9 ±2.3% and the Total arm entries is listed as 20.6 ±2.4. In addition, in data set [5] (6 mg/kg), the “Open arm entries (%)” value is 15.6 ±3.4%, the “Time in centre (%)” value was 53.1 ±5.7%, the “Time in open arms (%)” value is 5.4 ±1.0% and the Total arm entries is 15.4 ±0.8.
For the compound `CN1[C@@H]2C[C@@H](OC(=O)[C@H](CO)c3ccccc3)C[C@H]1[C@@H]1O[C@@H]12` [Scopolamine, reference compound], the “latency time to descend from the bar” value in [6] is recorded as “significantly decreased the latency time”.
In the case of `C#CCN1CCC(/C=C/c2ccc(C(F)(F)F)cc2)CC1` [Compound 84, (E)-1-(Prop-2-yn-1-yl)-4-(4-(trifluoromethyl)styryl)piperidine], the inhibition at 300 µM in data set [2] turned out to be 48%. Besides, the cytotoxic effects entry in [3] was “no significant cytotoxic effects”. The “IC50(MAO-A) class” value in [7] was “na (na-not_active(RA_at_100micromolar>50%))”. Further, in [8], the “chemical stability on storage” value is “only smaller amounts of impurities were detected; also recorded: partial degradation”.
In the case of `C#CCN1CCC(/C=C\c2ccc(F)cc2)CC1` [Compound 6, (Z)-4-(4-Fluorostyryl)-1-(prop-2-yn-1-yl)piperidine], the thermodynamic solubility entry in [1] is given as “at least 17.6 g/250 mL”. Besides, in data set [2], the Ki is 2.4 ± 0.6 µM and the inhibition at 300 µM is 88%. For the same compound, the cytotoxic effects entry in data set [3] was “no significant cytotoxic effects”. Besides, the “immobility time, acute treatment” value in [4] was “significantly reduced”. For the same compound, in data set [9], the spontaneous locomotor activity result was “significantly decreased”. Besides, the “increase in the proportion of open-arm entries” value in data set [5] (10 mg/kg ip, vs 0.9% saline) is 2.0 fold. Moreover, in data set [5] (3 mg/kg), the “Open arm entries (%)” value is given as 10.8 ±2.6%, the “Time in centre (%)” value was found to be 43.5 ±2.8%, the “Time in open arms (%)” value was 9.1 ±1.9% and the Total arm entries worked out at 22.0 ±1.5. In data set [5] (10 mg/kg), the “Open arm entries (%)” value turned out to be 27.5 ±3.2% and the “Time in open arms (%)” value amounted to 8.4 ±2.7%.
Regarding `NCCc1ccc(O)cc1` [p-Tyramine, reference compound], the K0.5 in data set [10] amounted to 0.071 ± 0.032 mM.
In the case of `CN(C)CCCN1c2ccccc2CCc2ccccc21` [imipramine, reference compound], the “immobility time, acute treatment” value in data set [4] is given as “significantly reduced”.
